Measurements: patent publication US10004701B2, “Methods and compositions for treating infection” (UNIVERSITY OF ROCHESTER, priority 2012, dated 2018)
Structures can show the parent of a compound that is named as a salt. Where two headings read alike, the source gives them in different places.

Legend:
Experiment in all cases: AK assay 384-well format, Prestwick library screening
[1] = tested on: S. aureus strain USA300-0114; type: cell-based, Staphylococcus aureus; settings: 50 μM final drug concentration; for fold induction at 50 µM: Staphylococcus aureus, USA300, 3 h
[2] = tested on: A. baumannii strain 98-37-09; type: cell-based, Acinetobacter baumannii; settings: 50 μM final drug concentration; for fold induction at 50 µM: Acinetobacter baumannii, 983709, 3 h
K. pneumoniae = type: cell-based, Klebsiella pneumoniae; settings: 50 μM final drug concentration; for fold induction at 50 µM: Klebsiella pneumoniae, 3 h
P. aeruginosa = type: cell-based, Pseudomonas aeruginosa; settings: 50 μM final drug concentration; for fold induction at 50 µM: Pseudomonas aeruginosa, 3 h
E. cloacae = type: cell-based, Enterobacter cloacae; settings: 50 μM final drug concentration; for fold induction at 50 µM: Enterobacter cloacae, 3 h
E. faecium = type: cell-based, Enterococcus faecium; settings: 50 μM final drug concentration; for fold induction at 50 µM: Enterococcus faecium, 3 h
E. coli = type: cell-based, Escherichia coli; settings: 50 μM final drug concentration; for fold induction at 50 µM: Escherichia coli, 3 h
[3] = planktonic, cutoff for positive-scoring molecules 3-fold increase, read-out: AK-based Prestwick Library Screening Results, S. aureus (fold increase in extracellular AK activity)
[4] = planktonic, cutoff for positive-scoring molecules 3-fold increase, read-out: AK-based Prestwick Library Screening Results, A. baumannii (fold increase in extracellular AK activity)
[5] = planktonic, cutoff for positive-scoring molecules 3-fold increase, read-out: AK-based Prestwick Library Screening Results, K. pneumoniae (fold increase in extracellular AK activity)
[6] = planktonic, cutoff for positive-scoring molecules 3-fold increase, read-out: AK-based Prestwick Library Screening Results, P. aeruginosa (fold increase in extracellular AK activity)
[7] = planktonic, cutoff for positive-scoring molecules 3-fold increase, read-out: AK-based Prestwick Library Screening Results, E. cloacae (fold increase in extracellular AK activity)
[8] = planktonic, cutoff for positive-scoring molecules 3-fold increase, read-out: AK-based Prestwick Library Screening Results, E. faecium (fold increase in extracellular AK activity)
[9] = planktonic, cutoff for positive-scoring molecules 3-fold increase, read-out: AK-based Prestwick Library Screening Results, E. coli (fold increase in extracellular AK activity)
[10] = cutoff for positive-scoring molecules 3-fold increase, read-out: AK-based Prestwick Library Screening Results, S. aureus (fold increase in extracellular AK activity)
[11] = cutoff for positive-scoring molecules 3-fold increase, read-out: AK-based Prestwick Library Screening Results, A. baumannii (fold increase in extracellular AK activity)
[12] = cutoff for positive-scoring molecules 3-fold increase, read-out: AK-based Prestwick Library Screening Results, K. pneumoniae (fold increase in extracellular AK activity)
[13] = cutoff for positive-scoring molecules 3-fold increase, read-out: AK-based Prestwick Library Screening Results, P. aeruginosa (fold increase in extracellular AK activity)
[14] = cutoff for positive-scoring molecules 3-fold increase, read-out: AK-based Prestwick Library Screening Results, E. cloacae (fold increase in extracellular AK activity)
[15] = cutoff for positive-scoring molecules 3-fold increase, read-out: AK-based Prestwick Library Screening Results, E. faecium (fold increase in extracellular AK activity)
[16] = cutoff for positive-scoring molecules 3-fold increase, read-out: AK-based Prestwick Library Screening Results, E. coli (fold increase in extracellular AK activity)
[17] = 384-well format, cutoff for positive-scoring molecules 3-fold increase, read-out: AK-based Prestwick Library Screening Results, S. aureus (increase in extracellular AK activity)
[18] = 384-well format, cutoff for positive-scoring molecules 3-fold increase, read-out: AK-based Prestwick Library Screening Results, A. baumannii (increase in extracellular AK activity)
[19] = 384-well format, cutoff for positive-scoring molecules 3-fold increase, read-out: AK-based Prestwick Library Screening Results, K. pneumoniae (increase in extracellular AK activity)
[20] = 384-well format, cutoff for positive-scoring molecules 3-fold increase, read-out: AK-based Prestwick Library Screening Results, P. aeruginosa (increase in extracellular AK activity)
[21] = 384-well format, cutoff for positive-scoring molecules 3-fold increase, read-out: AK-based Prestwick Library Screening Results, E. cloacae (increase in extracellular AK activity)
[22] = 384-well format, cutoff for positive-scoring molecules 3-fold increase, read-out: AK-based Prestwick Library Screening Results, E. faecium (increase in extracellular AK activity)
[23] = 384-well format, cutoff for positive-scoring molecules 3-fold increase, read-out: AK-based Prestwick Library Screening Results, E. coli (increase in extracellular AK activity)
[24] = planktonic S. aureus, 384-well, cutoff for positive-scoring molecules 3-fold increase, read-out: AK-based Prestwick Library Screening Results: S. aureus (increase in extracellular AK activity)
[25] = planktonic A. baumannii, 384-well, cutoff for positive-scoring molecules 3-fold increase, read-out: AK-based Prestwick Library Screening Results: A. baumannii (increase in extracellular AK activity)
[26] = planktonic K. pneumoniae, 384-well, cutoff for positive-scoring molecules 3-fold increase, read-out: AK-based Prestwick Library Screening Results: K. pneumoniae (increase in extracellular AK activity)
[27] = planktonic P. aeruginosa, 384-well, cutoff for positive-scoring molecules 3-fold increase, read-out: AK-based Prestwick Library Screening Results: P. aeruginosa (increase in extracellular AK activity)
[28] = planktonic E. cloacae, 384-well, cutoff for positive-scoring molecules 3-fold increase, read-out: AK-based Prestwick Library Screening Results: E. cloacae (increase in extracellular AK activity)
[29] = planktonic E. faecium, 384-well, cutoff for positive-scoring molecules 3-fold increase, read-out: AK-based Prestwick Library Screening Results: E. faecium (increase in extracellular AK activity)
[30] = planktonic E. coli, 384-well, cutoff for positive-scoring molecules 3-fold increase, read-out: AK-based Prestwick Library Screening Results: E. coli (increase in extracellular AK activity)
[31] = planktonic, cutoff for positive-scoring molecules 3-fold increase

Compound `CN(C)CCN(Cc1ccc(Cl)cc1)c1ccccn1` [Chloropyramine hydrochloride] has a fold induction at 50 µM [1, 3] of 0.5, a fold induction at 50 µM [2, 4] of 0.6 and a fold induction at 50 µM (K. pneumoniae; [5]) of 0.6. For the same compound, the fold induction at 50 µM (P. aeruginosa; [6]) was 0.5, the fold induction at 50 µM (E. cloacae; [7]) was 0.6 and the fold induction at 50 µM (E. faecium; [8]) was 0.9. For the same compound, the fold induction at 50 µM (E. coli; [9]) was 0.7.

Work on `O=C(CCCCC(=O)Nc1c(I)cc(I)c(C(=O)O)c1I)Nc1c(I)cc(I)c(C(=O)O)c1I` [Iodipamide] yielded a fold induction at 50 µM [1, 10] of 1, a fold induction at 50 µM [2, 11] of 1.2 and a fold induction at 50 µM (K. pneumoniae; [12]) of 1. The fold induction at 50 µM (P. aeruginosa; [13]) was 1.1, the fold induction at 50 µM (E. cloacae; [14]) was 1.6 and the fold induction at 50 µM (E. faecium; [15]) was 1. The fold induction at 50 µM (E. coli; [16]) was 1.2.

For `Cc1ccccc1OCC(O)CO` (stereo not drawn) [Mephenesin], the fold induction at 50 µM [1, 17] was 0.8, the fold induction at 50 µM [2, 18] was 0.8 and the fold induction at 50 µM (K. pneumoniae; [19]) was 0.7. It also gave a fold induction at 50 µM (P. aeruginosa; [20]) of 0.6, a fold induction at 50 µM (E. cloacae; [21]) of 0.8 and a fold induction at 50 µM (E. faecium; [22]) of 1. For the same compound, the fold induction at 50 µM (E. coli; [23]) was 0.7.

Work on `Cc1nnc(NS(=O)(=O)c2ccc(N)cc2)s1` [Sulfamethizole] yielded a fold induction at 50 µM [1, 3] of 0.7, a fold induction at 50 µM [2, 4] of 1.4 and a fold induction at 50 µM (K. pneumoniae; [5]) of 0.7. The fold induction at 50 µM (P. aeruginosa; [6]) was 0.8, the fold induction at 50 µM (E. cloacae; [7]) was 0.9 and the fold induction at 50 µM (E. faecium; [8]) was 0.9. It also gave a fold induction at 50 µM (E. coli; [9]) of 1.

Compound `CC12CC3CC(C)(C1)CC(N)(C3)C2` [Memantine Hydrochloride] has a fold induction at 50 µM ([1]; planktonic S. aureus, positive cutoff 3-fold increase, read-out: AK-based Prestwick library screening result, S. aureus (fold increase in extracellular AK activity)) of 0.6, a fold induction at 50 µM ([2]; planktonic A. baumannii, positive cutoff 3-fold increase, read-out: AK-based Prestwick library screening result, A. baumannii (fold increase in extracellular AK activity)) of 0.7 and a fold induction at 50 µM (K. pneumoniae; planktonic K. pneumoniae, positive cutoff 3-fold increase, read-out: AK-based Prestwick library screening result, K. pneumoniae (fold increase in extracellular AK activity)) of 0.5. For the same compound, the fold induction at 50 µM (P. aeruginosa; planktonic P. aeruginosa, positive cutoff 3-fold increase, read-out: AK-based Prestwick library screening result, P. aeruginosa (fold increase in extracellular AK activity)) was 0.6, the fold induction at 50 µM (E. cloacae; planktonic E. cloacae, positive cutoff 3-fold increase, read-out: AK-based Prestwick library screening result, E. cloacae (fold increase in extracellular AK activity)) was 0.7 and the fold induction at 50 µM (E. faecium; planktonic E. faecium, positive cutoff 3-fold increase, read-out: AK-based Prestwick library screening result, E. faecium (fold increase in extracellular AK activity)) was 0.9. For the same compound, the fold induction at 50 µM (E. coli; planktonic E. coli, positive cutoff 3-fold increase, read-out: AK-based Prestwick library screening result, E. coli (fold increase in extracellular AK activity)) was 0.6.

Work on `CCN(CC)C(=O)N1CCN(C)CC1` [Diethylcarbamazine citrate] yielded a fold induction at 50 µM [1, 24] of 1.1, a fold induction at 50 µM [2, 25] of 1.1 and a fold induction at 50 µM (K. pneumoniae; [26]) of 0.9. For the same compound, the fold induction at 50 µM (P. aeruginosa; [27]) was 1.1, the fold induction at 50 µM (E. cloacae; [28]) was 1.7 and the fold induction at 50 µM (E. faecium; [29]) was 1.2. For the same compound, the fold induction at 50 µM (E. coli; [30]) was 1.3.

With `C[C@]12CCC(=O)C=C1CC[C@@H]1[C@@H]2[C@@H](O)C[C@@]2(C)[C@H]1CC[C@]2(O)C(=O)CO` [Hydrocortisone base] the “AK-based Prestwick Library Screening Results, S. aureus (increase in extracellular AK activity)” value ([1]; planktonic S. aureus, cutoff for positive-scoring molecules 3-fold increase) was 1.3, the “AK-based Prestwick Library Screening Results, A. baumannii (increase in extracellular AK activity)” value ([2]; planktonic A. baumannii, cutoff for positive-scoring molecules 3-fold increase) was 1.3 and the “AK-based Prestwick Library Screening Results, K. pneumoniae (increase in extracellular AK activity)” value (K. pneumoniae; planktonic K. pneumoniae, cutoff for positive-scoring molecules 3-fold increase) was 0.9. The “AK-based Prestwick Library Screening Results, P. aeruginosa (increase in extracellular AK activity)” value (P. aeruginosa; planktonic P. aeruginosa, cutoff for positive-scoring molecules 3-fold increase) was 1.1, the “AK-based Prestwick Library Screening Results, E. cloacae (increase in extracellular AK activity)” value (E. cloacae; planktonic E. cloacae, cutoff for positive-scoring molecules 3-fold increase) was 1.4 and the “AK-based Prestwick Library Screening Results, E. faecium (increase in extracellular AK activity)” value (E. faecium; planktonic E. faecium, cutoff for positive-scoring molecules 3-fold increase) was 1.0. For the same compound, the “AK-based Prestwick Library Screening Results, E. coli (increase in extracellular AK activity)” value (E. coli; planktonic E. coli, cutoff for positive-scoring molecules 3-fold increase) was 1.1.

Carbinoxamine maleate salt was tested, and the “AK-based Prestwick Library Screening Results, S. aureus (fold increase in extracellular AK activity)” value [1, 31] was 0.6, the “AK-based Prestwick Library Screening Results, A. baumannii (fold increase in extracellular AK activity)” value [2, 31] was 0.7 and the “AK-based Prestwick Library Screening Results, K. pneumoniae (fold increase in extracellular AK activity)” value (K. pneumoniae; [31]) was 0.6. For the same compound, the “AK-based Prestwick Library Screening Results, P. aeruginosa (fold increase in extracellular AK activity)” value (P. aeruginosa; [31]) was 0.6, the “AK-based Prestwick Library Screening Results, E. cloacae (fold increase in extracellular AK activity)” value (E. cloacae; [31]) was 0.7 and the “AK-based Prestwick Library Screening Results, E. faecium (fold increase in extracellular AK activity)” value (E. faecium; [31]) was 0.8. The “AK-based Prestwick Library Screening Results, E. coli (fold increase in extracellular AK activity)” value (E. coli; [31]) was 0.7.

Work on `CC(C)(Oc1ccc(Cl)cc1)C(=O)O` [Clofibric acid] yielded a fold induction at 50 µM [1, 10] of 1.4, a fold induction at 50 µM [2, 11] of 1.3 and a fold induction at 50 µM (K. pneumoniae; [12]) of 1.1. For the same compound, the fold induction at 50 µM (P. aeruginosa; [13]) was 1.2, the fold induction at 50 µM (E. cloacae; [14]) was 1.5 and the fold induction at 50 µM (E. faecium; [15]) was 1.1. For the same compound, the fold induction at 50 µM (E. coli; [16]) was 1.2.

Work on `CC(C(=O)O)c1ccc(C(=O)c2cccs2)cc1` (stereo not drawn) [Suprofen] yielded a fold induction at 50 µM [1, 3] of 0.6, a fold induction at 50 µM [2, 4] of 0.8 and a fold induction at 50 µM (K. pneumoniae; [5]) of 0.7. It also gave a fold induction at 50 µM (P. aeruginosa; [6]) of 0.7, a fold induction at 50 µM (E. cloacae; [7]) of 0.9 and a fold induction at 50 µM (E. faecium; [8]) of 0.9. For the same compound, the fold induction at 50 µM (E. coli; [9]) was 0.7.

With `CC(=O)Nc1nnc(S(N)(=O)=O)s1` [Acetazolamide] the fold induction at 50 µM [1, 17] was 0.4, the fold induction at 50 µM [2, 18] was 0.4 and the fold induction at 50 µM (K. pneumoniae; [19]) was 0.4. For the same compound, the fold induction at 50 µM (P. aeruginosa; [20]) was 0.3, the fold induction at 50 µM (E. cloacae; [21]) was 0.3 and the fold induction at 50 µM (E. faecium; [22]) was 0.9. The fold induction at 50 µM (E. coli; [23]) was 0.4.

For `O=C(CCCN1CCC2(CC1)C(=O)NCN2c1ccccc1)c1ccc(F)cc1` [Spiperone], the fold induction at 50 µM [1, 24] was 1, the fold induction at 50 µM [2, 25] was 1.2 and the fold induction at 50 µM (K. pneumoniae; [26]) was 0.9. The fold induction at 50 µM (P. aeruginosa; [27]) was 1.2, the fold induction at 50 µM (E. cloacae; [28]) was 1.3 and the fold induction at 50 µM (E. faecium; [29]) was 1.2. It also gave a fold induction at 50 µM (E. coli; [30]) of 1.3.
